Earlier results as cited in patent US20140113009A1, “CONTROLLED APPLICATION OF CROSS-LINKING AGENT” (Avedro, Inc., priority 2012, published 2014).

Assays:
[1] = compared with Riboflavin
[2] = combined with greater than 40 mM ascorbic acid; after 4 hours of light exposure

| solubility in water relative to Riboflavin [1] | Compound | Riboflavin remains unreacted [2] |
| --- | --- | --- |
| more soluble in water | Cc1cc2nc3c(=O)[nH]c(=O)nc-3n(C[C@H](O)[C@H](O)[C@H](O)COP(=O)(O)O)c2cc1C [FMN, Riboflavin-5-phosphate] | – |
| – | O=C1O[C@H]([C@@H](O)CO)C(O)=C1O [ascorbic acid] | more than 90% |
